From patent US8362067B2, “3-aminoalkyl-1,3-dihydro-2H-indol-2-one derivatives, preparation thereof and therapeutic use thereof” (Sanofi, priority 2008, dated 2013)

How the values were obtained:
human V1b receptors = molecular target: T1, human V1b receptors (Homo sapiens, UniProt P47901); test: Affinity for human V1b receptors: displacement of [3H]-AVP; conditions: binding
T1 sequence (P47901 1-424): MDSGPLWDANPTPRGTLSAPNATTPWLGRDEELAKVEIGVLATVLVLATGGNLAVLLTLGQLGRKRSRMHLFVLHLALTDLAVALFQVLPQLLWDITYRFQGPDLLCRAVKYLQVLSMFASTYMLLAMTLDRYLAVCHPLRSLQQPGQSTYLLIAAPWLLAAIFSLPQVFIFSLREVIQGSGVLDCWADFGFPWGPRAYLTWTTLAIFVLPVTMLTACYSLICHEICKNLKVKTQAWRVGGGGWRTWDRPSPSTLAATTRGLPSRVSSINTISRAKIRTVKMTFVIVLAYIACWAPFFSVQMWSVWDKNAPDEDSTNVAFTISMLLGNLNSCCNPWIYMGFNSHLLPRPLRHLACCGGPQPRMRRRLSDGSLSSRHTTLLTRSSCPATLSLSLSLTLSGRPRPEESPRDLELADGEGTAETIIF
Method: The affinity of the compounds of formula (I) according to the invention for arginine-vasopressin V1b receptors was determined in vitro using the method described by Y. de Keyser et al. in Febs Letters, 1994, 356, 215-220. This method consists in studying in vitro the displacement of tritiated arginine-vasopressin ([^3H]-AVP) at the V1b receptors present on cell preparations carrying human V1b receptors.
(§1) The comparative pharmacological results of Compounds Nos. 17, 38, 46, 107 and 108 according to the invention with the compounds α and β of the prior art on the various in vitro tests measuring the affinity at human V1a, V1b, V2 and oxytocin receptors are illustrated in the following TABLE XV. The results are expressed by the 50% inhibitory concentration (IC50) expressed on a nanomolar basis (nM).

human V1a receptors = human V1a receptors (Homo sapiens, UniProt P37288); test: Measurement of intracellular calcium (FLIPR) on cells expressing human V1a receptors; type: cell-based; conditions: blocking the pharmacological effects brought about by arginine-vasopressin (FLIPR and platelet aggregation tests)
human V1a receptors, sequence (P37288 whole entry): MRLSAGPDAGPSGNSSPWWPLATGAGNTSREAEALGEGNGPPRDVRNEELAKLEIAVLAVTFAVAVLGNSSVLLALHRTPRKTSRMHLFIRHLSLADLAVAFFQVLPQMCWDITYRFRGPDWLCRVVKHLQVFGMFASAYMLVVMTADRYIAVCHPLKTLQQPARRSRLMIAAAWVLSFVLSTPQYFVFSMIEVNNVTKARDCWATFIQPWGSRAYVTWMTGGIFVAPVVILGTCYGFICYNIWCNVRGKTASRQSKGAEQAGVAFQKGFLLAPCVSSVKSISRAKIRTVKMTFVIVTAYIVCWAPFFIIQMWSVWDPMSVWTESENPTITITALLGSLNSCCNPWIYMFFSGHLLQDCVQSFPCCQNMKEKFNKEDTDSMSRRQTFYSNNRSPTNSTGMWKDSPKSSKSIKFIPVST
Method: The agonist or antagonist nature of the compounds is determined in vitro in a test for the measurement of intracellular calcium (FLIPR) on cells expressing human V1a receptors according to the general technique described in Sullivan et al., Methods Mol. Biol., 1999, 114, 125-133, using 1 μM of Fluo4 AM, and in a test for platelet aggregation induced with AVP on human PRP (platelet-rich plasma) according to the methodology described in J. Clin. Invest., 1993, 92, 224-231. The compounds are preincubated 30 minutes before the addition of the arginine-vasopressin in order to determine the agonist and antagonist properties of these molecules.

human V2 receptors = human V2 receptors (Homo sapiens, UniProt P30518); test: Affinity for vasopressin V2 receptors; type: binding; conditions: for IC50: binding
human V2 receptors, sequence (P30518 whole entry): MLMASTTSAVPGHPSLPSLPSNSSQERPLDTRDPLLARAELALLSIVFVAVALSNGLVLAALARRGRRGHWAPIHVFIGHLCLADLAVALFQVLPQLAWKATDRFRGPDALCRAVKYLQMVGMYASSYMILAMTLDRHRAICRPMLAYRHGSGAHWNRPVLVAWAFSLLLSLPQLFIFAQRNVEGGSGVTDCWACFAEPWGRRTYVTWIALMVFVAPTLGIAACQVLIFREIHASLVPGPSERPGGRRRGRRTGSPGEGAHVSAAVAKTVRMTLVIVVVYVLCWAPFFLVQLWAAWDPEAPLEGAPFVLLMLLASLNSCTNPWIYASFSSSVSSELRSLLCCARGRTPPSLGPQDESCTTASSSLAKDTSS
From the text: The affinity of the compounds of formula (I) according to the invention for vasopressin V2 receptors was also studied (method described by M. Birnbaumer et al. in Nature (Lond.), 1992, 357, 333-335).
as §1

[1] = molecular target: T2, human uterine oxytocin receptor (Homo sapiens, UniProt P30559); test: Affinity for oxytocin receptors: displacement of a radioiodinated oxytocin analog; type: binding; conditions: for IC50: binding, radioiodinated oxytocin analog
T2 construct: expressed in transfected cells
T2 sequence (P30559 1-389): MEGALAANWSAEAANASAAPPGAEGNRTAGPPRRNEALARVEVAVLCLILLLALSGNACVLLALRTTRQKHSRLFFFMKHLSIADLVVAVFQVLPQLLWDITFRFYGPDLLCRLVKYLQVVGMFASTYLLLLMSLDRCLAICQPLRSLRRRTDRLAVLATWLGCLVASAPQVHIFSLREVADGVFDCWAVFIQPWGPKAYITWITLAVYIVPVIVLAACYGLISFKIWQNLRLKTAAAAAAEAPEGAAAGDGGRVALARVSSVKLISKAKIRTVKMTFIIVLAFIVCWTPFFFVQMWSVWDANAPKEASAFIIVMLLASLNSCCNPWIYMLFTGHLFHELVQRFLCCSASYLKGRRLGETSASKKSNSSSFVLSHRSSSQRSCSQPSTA
Method: The affinity of the compounds according to the invention for oxytocin receptors was determined in an in vitro binding test using the method described by J. Elands et al. in Eur. J. Pharmacol., 1987, 147, 197-207. This method consists in studying in vitro the displacement of a radioiodinated oxytocin analog at the oxytocin receptors in a cell membrane preparation transfected with the human uterine oxytocin receptor.
as §1

[2] = molecular target: human arginine-vasopressin V1a receptors (Homo sapiens, UniProt P37288); test: Affinity for human V1a receptors: displacement of [3H]-AVP; type: binding; conditions: for IC50: binding, displacement of [3H]-AVP; for selectivity for human AVP V1a receptors and for human AVP V1b receptors: versus V2 and/or oxytocin receptors
human arginine-vasopressin V1a receptors, sequence (P37288 whole entry): as the sequence (P37288 whole entry) above
Method: The affinity of the compounds of formula (I) according to the invention for arginine-vasopressin V1a receptors was determined in vitro using the method described by M. Thibonnier et al., J. Biol. Chem., 1994, 269, 3304-3310. This method consists in studying in vitro the displacement of tritiated arginine-vasopressin ([^3H]-AVP) at the V1a receptors present on membrane or cell preparations carrying rat or human V1a receptors.
as §1

SMILES	IC50 (human V1b receptors) [nM]	agonist or antagonist nature at V1a receptors (human V1a receptors)	IC50 (human V2 receptors) [nM]	IC50 [1] [nM]	melting point [°C]	IC50 [2] [nM]	affinity for human AVP V2 receptors (human V2 receptors)	affinity for oxytocin receptors [1]	affinity for human AVP V1a receptors [2]	selectivity for human AVP V1a receptors and for human AVP V1b receptors [2]
COc1cc2c(cc1Cl)C(CCCN1CCNCC1)(c1ccccc1F)C(=O)N2S(=O)(=O)c1ccc(OC(C)C)cc1.Cl (single isomer, unassigned) [Compound No. 17, 5-Chloro-3-(2-fluorophenyl)-1-[(4-isopropoxyphenyl)sulfonyl]-6-methoxy-3-[3-(piperazin-1-yl)propyl]-1,3-dihydroindol-2-one hydrochloride]	> 1000	antagonists of V1a receptors	450	390	232	2.4	–	–	–	–
CCN(CC)C(=O)Nc1ccc(S(=O)(=O)N2C(=O)C(NCCC3CCNCC3)(c3ccccc3Cl)c3cc(Cl)c(Cl)cc32)cc1 (stereo not drawn) [Compound α, 3-[4-[[5,6-dichloro-3-(2-chlorophenyl)-2-oxo-3-[(2-(piperidin-4-yl)ethyl)amino]-2,3-dihydro-1H-indol-1-yl]sulfonyl]phenyl]-1,1-diethylurea, reference compound]	–	–	–	–	–	–	good affinity	good affinity	good affinity	not selective
COc1ccc(S(=O)(=O)N2C(=O)C(CCCN3CCNCC3)(c3ccccc3F)c3cc(OC)c(OC)cc32)cc1C (stereo not shown) [compound 108]	320	–	> 1000	> 1000	–	5	–	–	–	–
CCN(CC)C(=O)Nc1ccc(S(=O)(=O)N2C(=O)C(NCCC3CCNCC3)(c3ccccc3Cl)c3cc(Cl)c(C)cc32)cc1 (stereo not drawn) [Compound β, 3-[4-[[5-chloro-3-(2-chlorophenyl)-6-methyl-2-oxo-3-[(2-(piperidin-4-yl)ethyl)amino]-2,3-dihydro-1H-indol-1-yl]sulfonyl]phenyl]-1,1-diethylurea, reference compound]	–	–	–	–	–	–	good affinity	–	good affinity	not selective
COc1ccc(S(=O)(=O)N2C(=O)C(CCCN3CCNCC3)(c3ccccc3F)c3cc(F)c(OC)cc32)cc1C (stereo not shown) [compound 107]	140	–	> 1000	> 1000	–	8.5	–	–	–	–
COc1cccc(S(=O)(=O)N2C(=O)C(CCCN3CCN(C)CC3)(c3ccccc3F)c3cc(Cl)c(OC)cc32)c1 (stereo not shown) [Compound No. 38]	> 1000	–	> 1000	500	–	1.1	–	–	–	–
COc1cc2c(cc1Cl)C(CCCN1CCN(C)CC1)(c1ccccc1F)C(=O)N2S(=O)(=O)c1ccc(OC(C)C)cc1.Cl (stereo not shown) [Compound No. 13, 5-Chloro-3-(2-fluorophenyl)-1-[(4-isopropoxyphenyl)sulfonyl]-6-methoxy-3-[3-(4-methylpiperazin-1-yl)propyl]-1,3-dihydroindol-2-one hydrochloride]	–	antagonists of V1a receptors	–	–	205	–	–	–	–	–
COc1cc2c(cc1Cl)C(CCCN1CCNCC1)(c1ccccc1F)C(=O)N2S(=O)(=O)c1ccc(O)cc1 (stereo not shown) [Compound No. 46]	640	–	> 1000	380	–	2.4	–	–	–	–
